Assay results as given in patent publication US20250082598A1, “Melafenoxate, 2-(1-adamantylamino)ethyl 2-(4-chlorophenoxy)acetate and derivatives thereof for treating circadian rhythm sleep disorders with neurodegenerative diseases such as Alzheimer's disease” (NLS Pharmaceutics AG, priority 2021, published 2025).

System: C57BL/6J mice
Experiment: Scopolamine-induced amnesia in the novel object recognition (NOR) test
Format: in vivo
Conditions: scopolamine 1.2 mg/kg i.p. alone
Procedure: The scopolamine-induced amnesia in the novel object recognition (NOR) test in mice is a recognized in vivo model of Alzheimer Disease (AD).
The aim of this study is to examine whether Melafenoxate (NLS-8) improves amnesia induced by scopolamine in the NOR test.
Experiments were carried out on C57BL/6J mice.
In a first step of the experiment, NLS-8 was tested at 25, 50 and 100 mg/kg.
Animals were divided into 6 groups (N=4-10/group).
At T=0 min, they received the following treatments by intraperitoneal (i.p.) route: • Control group: vehicle. • Scopolamine group: scopolamine (1.2 mg/kg). • NLS-8 25 group: NLS-8 (25 mg/kg)+scopolamine (1.2 mg/kg). • NLS-8 50 group: NLS-8 (50 mg/kg)+scopolamine (1.2 mg/kg). • NLS-8 100 group: NLS-8 (100 mg/kg)+scopolamine (1.2 mg/kg). • NLS-8 150 group: NLS-8 (150 mg/kg)+scopolamine (1.2 mg/kg).
At T=30 min following treatment, animals were subjected to a sample trial. They were placed for a 12-min session in a circular experimental box in which two identical objects were presented (50% of animals: two brown cylindrical vials; 50% of animals: two black rectangular columns). At t=120 min following treatments, mice were subjected to a choice trial. They were placed again for a 12-min session in the same experimental box in which two different objects (a vial and a column) were presented: one of the objects (termed as familiar object) presented in the sample trial and a novel object. Exploration of the objects was recorded by an experimenter blind to treatment and unaware of which object was the novel one and which object was the familiar one.
DI(discrimination index)=100 ×(exploration time of the novel object−exploration time of the familiar object)/(exploration time of the novel object+exploration time of the familiar object). • Index of exploration: N+F=exploration time of the novel object+exploration time of the familiar object.
• Within group comparisons: DI vs. 0 (paired Student's t test). • Between group comparisons vs. the Control group and vs. the Scopo group: unpaired Student's t test.

CN1[C@@H]2C[C@@H](OC(=O)[C@H](CO)c3ccccc3)C[C@H]1[C@@H]1O[C@@H]12 [Scopo, scopolamine, reference compound]
discrimination index vs. 0 (within group): Not significantly different from 0 | discrimination index vs. Control group: Significantly lower
